Reference: BigSolDB 2.1

CC(C)C(=O)Nc1ccc([N+](=O)[O-])c(C(F)(F)F)c1
solubility (mole fraction)
Settings	278.15 K	283.15 K	288.15 K	293.15 K	298.15 K	303.15 K	308.15 K	313.15 K	318.15 K	323.15 K
in 1,4-dioxane	–	0.108	0.127	0.151	0.177	0.203	0.231	0.262	0.299	0.348
in THF	0.259	0.276	0.297	0.321	0.348	0.376	0.405	0.436	0.469	0.502
in acetone	0.186	0.201	0.228	0.258	0.291	0.327	0.366	0.407	0.45	0.49
in acetonitrile	0.0566	0.0711	0.0902	0.119	0.157	0.197	0.246	0.296	0.355	0.427
in ethanol	0.0503	0.0556	0.063	0.0709	0.0797	0.0908	0.102	0.117	0.133	0.154
in ethyl acetate	0.161	0.178	0.191	0.206	0.227	0.246	0.269	0.29	0.321	0.351
in isobutanol	0.0307	0.0381	0.0487	0.0632	0.0776	0.0965	0.118	0.141	0.171	0.207
in isopropanol	0.0539	0.0609	0.0692	0.0799	0.0918	0.105	0.121	0.139	0.161	0.182
in methanol	0.0401	0.047	0.0555	0.0641	0.0757	0.0878	0.103	0.12	0.142	0.166
in methyl acetate	0.141	0.157	0.179	0.208	0.24	0.275	0.312	0.35	0.396	0.447
in n-butanol	0.049	0.0549	0.0622	0.0709	0.0797	0.0904	0.103	0.117	0.135	0.156
in n-propanol	0.049	0.0547	0.0624	0.0698	0.0784	0.0889	0.101	0.115	0.132	0.15
